Key:
[1] = target: T1, serotonin transporter (SERT) (Homo sapiens, UniProt P31645); assay: Radioligand binding assay, serotonin transporter (SERT); settings: binding assay, test compound 1×10^−6 M
T1 construct: expressed in transfected cells; host or cells: CHO cells
Procedure, shortened: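 Values are derived from competition curves fitted by the Hill equation to give IC50, then converted to Ki by Cheng-Prusoff with radioligand Kd from Scatchard analysis. Specific binding equals total minus non-specific (excess cold ligand), counted by scintillation, and is also expressed as percent inhibition of control.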

5-HT7 receptor = target: T2, 5-HT7 receptor (Homo sapiens, UniProt P34969); assay: Radioligand binding assay, serotoninergic 5-HT7 receptors; settings: binding assay result in %, Table 5a;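 further: test compound at 1 µM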
T2 construct: purchased PerkinElmer
Procedure, shortened: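 Ki values used the Cheng–Prusoff equation, with KD from Scatchard analysis, applied to IC50 from Hill fits of human 5-HT7 radioligand competition curves. Bound radioligand was counted by scintillation, and excess unlabelled ligand set the non-specific binding.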

5-HT6 receptor = target: T3, 5-HT6 receptor (Homo sapiens, UniProt P50406); assay: Radioligand binding assay, serotoninergic 5-HT6 receptors; settings: binding assay result in %, Table 5a;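 further: test compound at 1 µM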
T3 construct: purchased PerkinElmer
Procedure, shortened: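 Values are Ki from Cheng–Prusoff, taking IC50 from Hill nonlinear regression of competition curves and KD from a Scatchard plot. Specific binding was total minus binding with excess unlabelled ligand. Radioligand displacement was detected by scintillation counting, and data were also reported as percent of control specific binding.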

5-HT2A receptor = target: T4, 5-HT2A receptor (Homo sapiens, UniProt P28223); assay: Radioligand binding assay, serotoninergic 5-HT2A receptors; settings: binding assay result in %, Table 5a
T4 construct: purchased PerkinElmer
Procedure, shortened: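 Competition curves from scintillation-counted specific binding (total minus binding with excess unlabelled ligand) were Hill-fitted to give IC50, converted to Ki via Cheng-Prusoff using Scatchard-derived Kd.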

[2] = test system: α1 adrenergic receptors (rat cerebral cortex); assay: Radioligand binding assay, adrenergic α1 receptors; settings: test compound 1×10^−6 M
Description: The specific ligand binding to the receptors is defined as the difference between the total binding and the non-specific binding determined in the presence of the excess of unlabelled ligand.
The results are expressed as a percent of control specific binding ((measured specific binding/control specific binding)×100) and as a percent inhibition of control specific binding (100−((measured specific binding/control specific binding)×100)) obtained in the presence of the test compounds. The specific ligand binding to the receptors is defined as the difference between the total binding and the nonspecific binding determined in the presence of an excess of unlabelled ligand. Scintillation counting was the method of detection of ligand binding. The IC50 values (concentration causing a half-maximal inhibition of control specific binding) were determined by non-linear regression analysis of the competition curves generated with mean replicate values using Hill equation curve fitting (Y=D+[(A−D)/(1+(C/C50)nH)], where Y=specific binding, D=minimum specific binding, A=maximum specific binding, C=compound concentration, C50=IC50, and nH=slope factor). […] The inhibition constants (Ki) were calculated using the Cheng Prusoff equation (Ki=IC50/(1+(L/KD)), where L=concentration of radioligand in the assay, and KD=affinity of the radioligand for the receptor). A scatchard plot was used to determine the Kd.

[3] = target: dopaminergic receptors D3 (Homo sapiens, UniProt P35462); assay: Radioligand binding assay, dopaminergic D3 receptors; settings: test compound 1×10^−6 M
Procedure, shortened: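 Scintillation read-out. Specific = total − nonspecific (excess cold ligand). Data as % of control specific binding / % inhibition; IC50 by Hill fit; Ki = IC50/(1+L/KD), KD from Scatchard plot.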

[4] = target: T5, 5-HT1A receptor (rat hippocampus) (Rattus norvegicus, UniProt P19327); assay: Radioligand binding assay, serotoninergic 5-HT1A receptors; settings: binding assay result in %, Table 5a;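 further: test compound at 1 µM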
T5 construct: hippocampus; from tissue; host or cells: rat hippocampus
T5 sequence (P19327 1-422): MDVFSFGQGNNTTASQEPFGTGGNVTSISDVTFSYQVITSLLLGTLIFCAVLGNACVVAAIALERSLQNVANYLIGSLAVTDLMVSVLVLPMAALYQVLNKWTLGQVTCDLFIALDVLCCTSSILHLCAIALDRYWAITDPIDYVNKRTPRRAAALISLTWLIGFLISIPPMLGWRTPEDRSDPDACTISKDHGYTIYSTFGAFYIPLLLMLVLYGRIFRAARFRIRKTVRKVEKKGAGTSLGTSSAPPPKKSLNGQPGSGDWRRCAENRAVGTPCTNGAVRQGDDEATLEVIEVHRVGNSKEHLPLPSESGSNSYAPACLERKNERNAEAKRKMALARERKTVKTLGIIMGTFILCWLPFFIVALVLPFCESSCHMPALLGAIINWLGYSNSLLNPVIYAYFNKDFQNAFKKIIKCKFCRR

[5] = target: dopaminergic receptors D2 (Homo sapiens, UniProt P14416); assay: Radioligand binding assay, dopaminergic D2 receptors; settings: binding assay, test compound 1×10^−6 M
Procedure, shortened: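 Displacement of radioligand from human dopamine D2, D3 or D4.4 receptors, counted by scintillation; specific binding is total minus binding under excess unlabelled ligand. IC50 values come from Hill curve fits of percent inhibition, then converted to Ki by Cheng-Prusoff using Scatchard-derived KD.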

T3 sequence (P50406 whole entry): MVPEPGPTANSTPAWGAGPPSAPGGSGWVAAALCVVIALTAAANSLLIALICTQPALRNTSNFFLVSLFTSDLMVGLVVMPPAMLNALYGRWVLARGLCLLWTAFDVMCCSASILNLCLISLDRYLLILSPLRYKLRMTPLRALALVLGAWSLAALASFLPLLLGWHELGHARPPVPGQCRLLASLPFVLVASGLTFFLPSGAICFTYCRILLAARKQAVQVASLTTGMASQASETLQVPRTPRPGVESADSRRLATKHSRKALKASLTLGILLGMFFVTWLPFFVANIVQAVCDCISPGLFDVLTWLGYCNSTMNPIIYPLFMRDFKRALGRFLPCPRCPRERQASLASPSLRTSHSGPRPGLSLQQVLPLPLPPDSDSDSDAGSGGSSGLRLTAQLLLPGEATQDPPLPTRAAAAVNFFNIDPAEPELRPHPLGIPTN
T4 sequence (P28223 whole entry): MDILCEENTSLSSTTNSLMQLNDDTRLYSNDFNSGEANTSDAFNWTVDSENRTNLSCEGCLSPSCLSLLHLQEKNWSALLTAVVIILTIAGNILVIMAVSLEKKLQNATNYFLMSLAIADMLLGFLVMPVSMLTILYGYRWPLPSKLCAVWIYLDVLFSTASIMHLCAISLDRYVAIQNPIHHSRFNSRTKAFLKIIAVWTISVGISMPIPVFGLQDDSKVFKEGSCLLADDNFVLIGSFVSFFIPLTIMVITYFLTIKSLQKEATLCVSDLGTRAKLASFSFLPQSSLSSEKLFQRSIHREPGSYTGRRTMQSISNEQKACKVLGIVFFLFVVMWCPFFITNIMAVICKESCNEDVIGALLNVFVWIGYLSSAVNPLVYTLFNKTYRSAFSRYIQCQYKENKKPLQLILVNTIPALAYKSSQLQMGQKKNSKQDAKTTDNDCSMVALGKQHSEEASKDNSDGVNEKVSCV
Chain of dopaminergic receptors D2 (P14416 whole entry): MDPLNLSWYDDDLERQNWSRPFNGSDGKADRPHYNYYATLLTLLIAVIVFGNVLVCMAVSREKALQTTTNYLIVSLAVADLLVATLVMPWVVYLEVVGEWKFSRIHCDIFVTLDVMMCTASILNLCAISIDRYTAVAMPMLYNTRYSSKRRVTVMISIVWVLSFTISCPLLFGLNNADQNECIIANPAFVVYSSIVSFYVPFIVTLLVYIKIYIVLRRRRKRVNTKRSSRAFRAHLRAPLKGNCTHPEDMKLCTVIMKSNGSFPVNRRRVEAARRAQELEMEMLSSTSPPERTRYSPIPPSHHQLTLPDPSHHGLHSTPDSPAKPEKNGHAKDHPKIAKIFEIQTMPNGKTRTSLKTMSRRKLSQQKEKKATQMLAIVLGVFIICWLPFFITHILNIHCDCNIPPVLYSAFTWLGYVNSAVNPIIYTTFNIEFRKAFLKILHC
T1 sequence (P31645 whole entry): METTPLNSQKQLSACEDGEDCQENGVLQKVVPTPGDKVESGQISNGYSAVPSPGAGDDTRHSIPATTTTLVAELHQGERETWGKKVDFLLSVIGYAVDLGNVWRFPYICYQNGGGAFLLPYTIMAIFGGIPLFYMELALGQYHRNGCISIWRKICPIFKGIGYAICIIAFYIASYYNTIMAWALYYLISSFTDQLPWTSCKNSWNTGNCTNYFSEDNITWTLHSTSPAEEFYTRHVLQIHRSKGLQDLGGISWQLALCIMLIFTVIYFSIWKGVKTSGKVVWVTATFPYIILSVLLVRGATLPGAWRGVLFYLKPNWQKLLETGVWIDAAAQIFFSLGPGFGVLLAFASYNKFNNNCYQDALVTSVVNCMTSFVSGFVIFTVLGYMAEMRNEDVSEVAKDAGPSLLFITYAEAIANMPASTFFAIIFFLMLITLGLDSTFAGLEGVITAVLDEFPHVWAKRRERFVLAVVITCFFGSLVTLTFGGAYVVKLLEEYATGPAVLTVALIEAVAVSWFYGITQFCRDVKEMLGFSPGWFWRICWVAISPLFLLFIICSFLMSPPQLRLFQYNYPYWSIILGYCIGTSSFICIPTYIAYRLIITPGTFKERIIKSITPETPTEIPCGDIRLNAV
T2 sequence (P34969 whole entry): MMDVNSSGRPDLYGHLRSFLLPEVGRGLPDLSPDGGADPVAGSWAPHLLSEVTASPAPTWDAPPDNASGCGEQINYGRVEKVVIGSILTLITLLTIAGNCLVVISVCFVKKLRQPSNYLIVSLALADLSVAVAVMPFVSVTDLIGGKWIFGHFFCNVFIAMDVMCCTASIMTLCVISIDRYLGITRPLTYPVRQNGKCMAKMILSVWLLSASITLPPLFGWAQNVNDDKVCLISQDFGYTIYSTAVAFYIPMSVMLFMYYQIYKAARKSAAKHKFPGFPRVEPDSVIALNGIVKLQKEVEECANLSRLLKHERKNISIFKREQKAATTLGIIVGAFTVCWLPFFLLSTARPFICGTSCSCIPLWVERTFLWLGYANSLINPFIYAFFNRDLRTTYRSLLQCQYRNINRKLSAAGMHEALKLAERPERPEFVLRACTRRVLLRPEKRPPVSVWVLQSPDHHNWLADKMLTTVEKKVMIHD
Chain of dopaminergic receptors D3 (P35462 whole entry): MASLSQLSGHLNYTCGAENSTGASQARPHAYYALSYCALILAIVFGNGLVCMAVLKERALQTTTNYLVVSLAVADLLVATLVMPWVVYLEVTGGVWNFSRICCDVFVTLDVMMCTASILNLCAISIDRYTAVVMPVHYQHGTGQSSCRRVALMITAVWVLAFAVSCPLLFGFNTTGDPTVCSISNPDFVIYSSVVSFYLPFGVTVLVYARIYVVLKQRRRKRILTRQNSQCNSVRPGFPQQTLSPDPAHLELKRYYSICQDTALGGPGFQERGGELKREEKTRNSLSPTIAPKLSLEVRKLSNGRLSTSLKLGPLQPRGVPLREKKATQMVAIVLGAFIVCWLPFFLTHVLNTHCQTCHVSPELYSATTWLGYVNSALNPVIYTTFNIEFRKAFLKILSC

Row | Structure (SMILES) | inhibition at 1 µM [1] [%] | inhibition at 1 µM (5-HT7 receptor) [%] | inhibition at 1 µM (5-HT6 receptor) [%] | inhibition at 1 µM (5-HT2A receptor) [%] | α1 [%] [2] [%] | inhibition at 1 µM [3] [%] | inhibition at 1 µM [4] [%] | inhibition at 1 µM [5] [%] | SERT [%] [1] [%] | 5-HT7 [%] (5-HT7 receptor) | 5-HT6 [%] (5-HT6 receptor) | 5-HT2A [%] (5-HT2A receptor) | D3 [%] [3] [%] | 5-HT1A [%] [4] [%] | D2 [%] [5] [%]
1 | O=S(=O)(NCC1CCN(CCOc2cccc3c2OCCO3)C1)c1ccc2scnc2c1 (stereo not drawn) [Compound 285, N-[[1-[2-(2,3-Dihydro-1,4-benzodioxin-5-yloxy)ethyl]pyrrolidin-3-yl]methyl]-1,3-benzothiazole-5-sulphonamide] | 60 | 86 | 34 | 77 | 69 | 18 | 62 | 24 |  |  |  |  |  |  | 
2 | O=S(=O)(NCC1CCN(CCOc2cccc3ccccc23)C1)c1cccc(O)c1 (stereo not drawn) [Compound 123, 3-Hydroxy-N-[[1-[2-(1-naphthyloxy)ethyl]pyrrolidin-3-yl]methyl]-benzenesulphonamide] | 83 | 88 | 72 | 64 | 43 | 86 | 99 | 38 |  |  |  |  |  |  | 
3 | O=S(=O)(NCC1CCN(CCOc2cccc3ccccc23)C1)c1ccc(F)c(F)c1 (stereo not drawn) [Compound 278, 3,4-Difluoro-N-[[1-[2-(1-naphthyloxy)ethyl]pyrrolidin-3-yl]methyl]benzenesulphonamide] | 91 | 102 | 85 | 91 | 37 | 94 | 84 | 31 |  |  |  |  |  |  | 
4 | O=S(=O)(NC1CCN(CCCc2noc3cc(F)ccc23)C1)c1cccc(O)c1 (stereo not drawn) [Compound 18, N-[1-[3-(6-Fluoro-1,2-benzoxazol-3-yl)propyl]pyrrolidin-3-yl]-3-hydroxybenzenesulphonamide] | 37 | 94 | 59 | 85 | 98 | 31 | 18 | 73 |  |  |  |  |  |  | 
5 | Cc1cccc(S(=O)(=O)NCC2CCN(CCCc3noc4cc(F)ccc34)CC2)c1 [Compound 36, N-[[1-[3-(6-Fluoro-1,2-benzoxazol-3-yl)propyl]-4-piperidine]methyl]-3-methylbenzenesulphonamide] |  |  |  |  | 103 |  |  |  | 0 | 88 | 75 | 59 | 38 | 18 | 57
6 | O=S(=O)(NC1CCN(CCOc2cccc3[nH]ccc23)C1)c1cccc2ccccc12 (stereo not drawn) [Compound 53, N-[1-[2-(1H-indol-4-yloxy)ethyl]pyrrolidin-3-yl]naphthalene-1-sulphonamide] | 56 | 102 | 54 | 85 | 88 | 99 | 90 | 74 |  |  |  |  |  |  | 
7 | O=S(=O)(NCC1CN(CCCc2c[nH]c3ccc(Cl)cc23)C1)c1ccc2ccccc2c1 [Compound 161, N-[[1-[3-(5-Chloro-1H-indol-3-yl)propyl]azetidin-3-yl]methyl]naphthalene-2-sulphonamide] | 66 | 83 | 87 | 88 | 46 | 75 | 86 | 84 |  |  |  |  |  |  | 
8 | O=S(=O)(NC1CCN(CCOc2nsc3ccccc23)CC1)c1ccc2ccccc2c1 [Compound 40, N-[1-[2-(1,2-Benzothiazol-3-yloxy)ethyl]-4-piperidine]naphthalene-2-sulphonamide] |  |  |  |  | 12 |  |  |  | −5 | 85 | 72 | 102 | 39 | 68 | 49
9 | O=S(=O)(NC1CCN(CCCc2c[nH]c3ccc(Cl)cc23)C1)c1ccccc1 (stereo not drawn) [Compound 81, N-[1-[3-(5-Chloro-1H-indol-3-yl)propyl]pyrrolidin-3-yl]benzene-sulphonamide] | 78 | 84 | 75 | 75 | 36 | 86 | 109 | 60 |  |  |  |  |  |  | 
10 | O=S(=O)(NC1CCN(CCCc2c[nH]c3ccc(Cl)cc23)C1)c1ccc2ccccc2c1 (stereo not drawn) [Compound 87, N-[1-[3-(5-Chloro-1H-indol-3-yl)propyl]pyrrolidin-3-yl]naphthalene-2-sulphonamide] | 64 | 71 | 91 | 78 | 18 | 86 | 105 | 63 |  |  |  |  |  |  | 
11 | Cn1ccc2cc(S(=O)(=O)NCC3CN(CCOc4cccc5ccccc45)C3)ccc21 [Compound 169, 1-Methyl-N-[[1-[2-(1-naphthyloxy)ethyl]azetidin-3-yl]methyl]indole-5-sulphonamide] | 75 | 93 | 100 | 69 | 74 | 100 | 84 | 84 |  |  |  |  |  |  | 
12 | O=S(=O)(NCC1CN(CCOc2cccc3c2OCCO3)C1)c1cccs1 [Compound 184, N-[[1-[2-(2,3-Dihydro-1,4-benzodioxin-5-yloxy)ethyl]azetidin-3-yl]methyl]-thiophene-2-sulphonamide] | 1 | 89 | 20 | 76 | 88 | 39 | 71 | 24 |  |  |  |  |  |  | 
13 | O=S(=O)(NCC1CN(CCOc2cccc3c2OCCO3)C1)c1cccc2ccccc12 [Compound 176, N-[[1-[2-(2,3-Dihydro-1,4-benzodioxin-5-yloxy)ethyl]azetidin-3-yl]methyl]-naphthalene-1-sulphonamide] | -2 | 87 | 14 | 35 | 51 | 8 | 98 | 21 |  |  |  |  |  |  | 
14 | Cn1ccc2c(S(=O)(=O)NCC3CN(CCOc4cccc5ccccc45)C3)cccc21 [Compound 170, 1-Methyl-N-[[1-[2-(1-naphthyloxy)ethyl]azetidin-3-yl]methyl]indole-4-sulphonamide] | 93 | 104 | 93 | 72 | 63 | 98 | 90 | 79 |  |  |  |  |  |  | 
15 | O=S(=O)(NCC1CCN(CCCc2noc3cc(F)ccc23)CC1)c1ccc2ccccc2c1 [Compound 38, N-[[1-[3-(6-Fluoro-1,2-benzoxazol-3-yl)propyl]-4-piperidine]methyl]-naphthalene-2-sulphonamide] |  |  |  |  | 98 |  |  |  | 17 | 94 | 104 | 82 | 64 | 25 | 77

Source: patent US20140135310A1, “SULPHONAMIDE DERIVATIVES OF ALICYCLIC AMINES FOR THE TREATMENT OF CENTRAL NERVOUS SYSTEM DISEASES” (Adamed Sp. z o.o., priority 2011, published 2014)
